According to patent US9096550B2, “Bryostatin analogues and methods of making and using thereof” (UNIVERSITY OF UTAH RESEARCH FOUNDATION, priority 2008, dated 2015):

Target: mouse recombinant isozyme PKCα (Mus musculus, UniProt P20444)
Assay: [3H]PDBu binding assay (displacement of bound [20-3H]phorbol 12,13-dibutyrate)
Conditions: displacement of [3H]PDBu from PKCα in the presence of calcium and phosphatidylserine; read-out: inhibitory dissociation constant (Ki)
Protocol: The inhibitory dissociation constant (Ki) of each bryologue ligand was determined by the ability of the ligand to displace bound [20-^3H]phorbol 12,13-dibutyrate (PDBu) from mouse recombinant isozyme PKC α in the presence of calcium and phosphatidylserine, using a polyethylene glycol precipitation assay developed in our laboratory as described elsewhere. Briefly, the assay mixture (250 μL) contained 50 mM Tris-HCl (pH 7.4 at room temperature), 100 μg/mL phosphatidylserine, 0.1 mM Ca^2+, 4 mg/mL bovine immunoglobulin G and 0.003% Tx-100, 2 nM [^3H]PDBu and various concentrations of the competing ligand. […] The radioactivity was determined by scintillation counting, using Cytoscint (ICN, Costa Mesa, Calif.). Specific binding was calculated as the difference between total and nonspecific PDBu binding. The Inhibitory dissociation constants (Ki) were calculated using the method previously described by Blumberg and Lewin.
The inhibitory dissociation constant (Ki) of MERLE 28 was determined by the ability of the ligand to displace bound [20-^3H]phorbol 12,13-dibutyrate (PDBu) from mouse recombinant isozyme PKCα in the presence of calcium and phosphatidylserine, using a polyethylene glycol precipitation assay previously described by Blumberg and Lewin. […] The radioactivity was determined by scintillation counting, using Cytoscint (ICN, Costa Mesa, Calif.). […]

## C=C1C[C@H]2C[C@H]3C[C@@H](OC(C)=O)C[C@@H](C[C@@H](O)CC(=O)O[C@@H]([C@@H](C)O)C[C@@H]4C/C(=C\C(=O)OC)[C@H](OC(=O)CCCCCCC)[C@@](O)(O4)C(C)(C)/C=C/[C@@H](C1)O2)O3 [MERLE 27]
  Ki: 3 ± 0.6 nM
